pKi: −log10 of the molar value.
Legend:
[1] = biological target: T1, human DAT (Homo sapiens, UniProt Q01959); test: Radioligand binding assay, [3H]BTCP, CHO cells (Eurofins Cerep)
T1 construct: host or cells: CHO
Description: (§1) Binding experiments. Binding affinity to the human DAT, SERT, and NET stable proteins expressed in CHO cells was evaluated in in vitro radioligand binding assays. Non-specific binding was determined using [^3H]BTCP, [^3H]imipramine, and ^[3H] nisoxetine for hDAT, hSERT, and hNET, respectively. The IC50 values were calculated by non-linear regression analysis of the competition curves generated from the mean replicate values. The Ki values were calculated using the Cheng–Prusoff equation (Ki = IC50/(1 + […])). Binding assays were carried out by Eurofins (Cerep SA, Celle l’Evescault, France), Study No. 100053935. For an in-depth description, please refer to the report in the supporting information file.

[2] = biological target: T2, human NET (Homo sapiens, UniProt P23975); test: Radioligand binding assay, [3H]nisoxetine, CHO cells (Eurofins Cerep); settings: human NET expressed in CHO cells; read-out: Ki, binding sites of the NET (against [3H]nisoxetine)
T2 construct: host or cells: CHO
Description: as §1

[3] = biological target: T3, human SERT (Homo sapiens, UniProt P31645); test: Radioligand binding assay, [3H]imipramine, CHO cells (Eurofins Cerep); settings: human SERT expressed in CHO cells; read-out: Ki, binding sites of the SERT (against [3H]imipramine)
T3 construct: host or cells: CHO
Description: as §1

[4] = tested on: extracellular DA levels in the hippocampus; test: In vivo micro-dialysis in freely moving mice; set-up: species or system C57BL76J mice; settings: for treatment effect on extracellular DA levels in hippocampus: 1 mg/kg i.p., experimental day 1; for time course of extracellular DA levels after the peak / increase of extracellular DA levels in hippocampus: 10 mg/kg i.p.; for time course of extracellular DA levels after the peak: experimental day 2; for increase of extracellular DA levels in hippocampus: experimental day 2, within 20 min of administration, relative to baseline
Description: Male, adult C57BL76J mice (Janvier-Labs, Saint Berthevin, France) were group-housed in individually ventilated cages under standard laboratory conditions (temperature 22 ± 2 °C, humidity 45–65%, with a 12:12 h light-dark cycle lights on at 07:00 h). Animals had free access to food and water. All experimental procedures were approved by the Austrian Animal Experimentation Ethical Committee (Bundesministerium für Wissenschaft, Forschung und Wirtschaft, Kommission für Tierversuchsangelegenheiten) in compliance with international laws and policies.
Under isoflurane anesthesia (at 5% and 1.5% for induction and maintenance, respectively), a commercially available guide cannula (MAB 4.15 with OD 0.48 mm and ID 0.35 mm, Microbiotech, Stockholm, Sweden) was implanted above the right hippocampus (AP = −2.1 mm, ML = +1.5 mm, DV = −0.7 mm from Bregma) and closed with a dummy probe as described previously. After surgery, animals received buprenorphine (0.5 mg/kg s.c.) and meloxicam (1.0 mg/kg p.o. via the drinking water) for analgesic care. They were allowed to recover for 5–7 days while being single-housed and habituated to the experimenter and experimental procedures. On the day before the experiment, the dummy was replaced by a microdialysis probe (MAB 4.15.1 PES, Microbiotech, Sweden) that extended the guide cannula by 1 mm, thus reaching into the dorsal hippocampus. Microdialysis probes were connected to a microinfusion pump (CMA, Stockholm, Sweden) and a swivel-tether system via polyethylene tubing. Probes were constantly superfused with artificial cerebrospinal fluid (aCSF); consisting of in mM: 140 NaCl, 3.0 KCl, 1.2 CaCl2, 1.0 MgCl2, 1.0 Na2HPO4, pH 7.4, at a flow rate of 0.5 µL/min overnight and 1.0 µL/min during sample collection, respectively. Microdialysis fractions were collected every 20 min in pre-cooled microtubes containing antioxidative protection solution (in mM: 0.27 Na2EDTA, 100 acetic acid, 0.0125 ascorbic acid), vortexed, and immediately frozen at −80 °C until further analysis. At any time, the dead volumes generated by the inlet and outlet systems were considered to cause a temporal delay in fraction collection.
On experimental day 1, vehicle (30% Kolliphor EL) or one of the two enantiomers -7h and 8h (1 mg/kg) was administered i.p. after six baseline samples, and another 12 samples were collected. On experimental day 2, the collection of dialysates was resumed. Again, 6 baseline samples and 12 samples after the administration of either vehicle (30% Kolliphor EL) or 7h/8h (10 mg/kg) were collected. At the end of the experiment, microdialysis probes were superfused with high (100 mM) depolarizing concentrations of potassium (K^+) containing aCSF in order to elicit local […] for testing the functionality of the microdialysis system. Thereafter, animals were euthanized with an overdose of thiopental, decapitated, and their brains removed. The localization of the microdialysis probe was verified by observing cresyl violet-stained coronal sections (40 µm) under a light microscope. Three animals were removed from the analysis due to misplaced probes.
Quantification of dopamine in microdialysates. The quantification of dopamine in microdialysates was performed using a high-performance liquid chromatography (HPLC) system for electrochemical detection, as previously described. The HPLC system consisted of a Shimadzu (Kyoto, Japan) system controller (CBM-20A), a degassing unit (DGU-20A3R), and a micro HPLC pump (LC-20AD) operating at a flow rate of 55 µL/min. Microdialysis samples (5 µL) were injected via a SIL-20ACHT autosampler (Shimadzu, Japan) and separated on a C18 reversed-phase column (Inertsil ODS-3; 50 mm × 1.0 mm ID; 3 µm particle sizes, GL Sciences Inc., Tokyo, Japan) placed in a DECADE II electrochemical detector equipped with an amperometric flow cell (Antec, Zoeterwoude, The Netherlands). […]

T2 sequence (P23975 whole entry): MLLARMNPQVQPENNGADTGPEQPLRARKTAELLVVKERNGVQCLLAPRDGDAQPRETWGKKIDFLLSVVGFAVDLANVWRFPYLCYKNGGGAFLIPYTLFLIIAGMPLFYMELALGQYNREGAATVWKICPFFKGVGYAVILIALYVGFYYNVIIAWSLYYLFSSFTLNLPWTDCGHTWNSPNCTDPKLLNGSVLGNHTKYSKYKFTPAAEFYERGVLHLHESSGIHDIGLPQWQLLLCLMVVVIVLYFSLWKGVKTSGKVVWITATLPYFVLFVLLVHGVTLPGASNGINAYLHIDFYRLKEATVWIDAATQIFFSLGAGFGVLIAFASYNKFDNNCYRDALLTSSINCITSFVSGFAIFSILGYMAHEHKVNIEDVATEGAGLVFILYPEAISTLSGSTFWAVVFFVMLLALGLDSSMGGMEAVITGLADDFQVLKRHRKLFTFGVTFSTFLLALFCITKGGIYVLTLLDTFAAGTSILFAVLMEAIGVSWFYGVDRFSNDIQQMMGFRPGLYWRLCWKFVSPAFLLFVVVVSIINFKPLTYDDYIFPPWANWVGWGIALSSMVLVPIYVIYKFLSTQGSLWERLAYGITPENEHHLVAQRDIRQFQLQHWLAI
T3 sequence (P31645 whole entry): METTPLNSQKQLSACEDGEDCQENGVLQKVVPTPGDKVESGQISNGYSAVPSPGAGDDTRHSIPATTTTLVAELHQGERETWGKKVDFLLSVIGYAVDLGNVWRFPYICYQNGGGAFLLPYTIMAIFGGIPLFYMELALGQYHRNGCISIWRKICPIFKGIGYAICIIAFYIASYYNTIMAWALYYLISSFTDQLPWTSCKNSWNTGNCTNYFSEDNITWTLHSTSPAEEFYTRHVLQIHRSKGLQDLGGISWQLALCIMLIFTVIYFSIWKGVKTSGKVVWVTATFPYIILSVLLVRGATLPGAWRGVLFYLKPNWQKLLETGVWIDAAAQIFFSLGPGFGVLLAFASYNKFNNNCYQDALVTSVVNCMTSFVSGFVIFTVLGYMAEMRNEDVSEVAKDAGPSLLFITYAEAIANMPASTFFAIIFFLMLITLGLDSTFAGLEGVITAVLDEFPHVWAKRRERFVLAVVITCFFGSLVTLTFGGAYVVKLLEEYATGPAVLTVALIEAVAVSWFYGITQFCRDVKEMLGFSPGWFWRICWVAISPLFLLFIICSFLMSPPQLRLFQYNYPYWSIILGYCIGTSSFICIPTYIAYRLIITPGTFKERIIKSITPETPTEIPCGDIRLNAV
T1 sequence (Q01959 whole entry): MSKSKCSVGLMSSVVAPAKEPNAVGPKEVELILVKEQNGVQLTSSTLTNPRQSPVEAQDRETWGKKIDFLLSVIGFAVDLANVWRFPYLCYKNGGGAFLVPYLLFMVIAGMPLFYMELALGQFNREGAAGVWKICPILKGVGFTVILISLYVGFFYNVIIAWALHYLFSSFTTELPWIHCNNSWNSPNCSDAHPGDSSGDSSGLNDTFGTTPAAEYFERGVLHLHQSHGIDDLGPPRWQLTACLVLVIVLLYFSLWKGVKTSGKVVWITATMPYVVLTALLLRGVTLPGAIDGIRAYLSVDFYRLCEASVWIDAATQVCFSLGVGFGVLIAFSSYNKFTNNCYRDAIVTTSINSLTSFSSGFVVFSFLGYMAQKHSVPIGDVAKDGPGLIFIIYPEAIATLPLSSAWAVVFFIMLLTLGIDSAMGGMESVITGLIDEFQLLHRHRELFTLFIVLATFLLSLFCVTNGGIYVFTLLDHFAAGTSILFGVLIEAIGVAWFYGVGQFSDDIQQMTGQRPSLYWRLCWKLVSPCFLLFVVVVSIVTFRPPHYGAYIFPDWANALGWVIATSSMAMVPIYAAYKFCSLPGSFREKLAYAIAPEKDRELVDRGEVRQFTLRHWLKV

Row | Compound | pKi [1] | pKi [2] | pKi [3] | treatment effect on extracellular DA levels in hippocampus [4] | time course of extracellular DA levels after the peak [4] | increase of extracellular DA levels in hippocampus [4]
1 | [O-][S@@+](Cc1cccs1)[C@@H](c1ccccc1)c1cccc(Br)c1 [Compound 7h, (S,S)-2-((((3-bromophenyl)(phenyl)methyl)sulfinyl)methyl)thiophene] | 7.89 | < 5.00 | < 5.00 | no treatment effect | remained elevated throughout a 2 h time period | approximately 35%
2 | [O-][S@+](Cc1cccs1)[C@H](c1ccccc1)c1cccc(Br)c1 [Compound 8h, (R,R)-2-((((3-bromophenyl)(phenyl)methyl)sulfinyl)methyl)thiophene] | 7.46 | < 5.00 | < 5.00 | no treatment effect | constantly declined from the peak values | approximately 35%

— article PMC10527105, “Chirality Matters: Fine-Tuning of Novel Monoamine Reuptake Inhibitors Selectivity through Manipulation of Stereochemistry” (Biomolecules, 2023)
